Test results reported in patent US10517889B2, “Modulators of SMAD7 expression” (Ionis Pharmaceuticals, Inc., priority 2017, dated 2019).
Strand notation (5' to 3'): a small letter for the sugar, then the base; units joined by * are phosphorothioate-linked, units joined directly phosphodiester-linked; [ ] holds rarer units or linkages, { } end groups; capitals alone tell only the bases. k = constrained ethyl (cEt); [5mC] = 5-methylcytosine; d = 2'-deoxy (DNA)

Tested on: human SMAD7 mRNA
Assay: Antisense inhibition of human SMAD7 mRNA expression in Hep3B cells by 3-10-3 cEt gapmers, 10,000 nM, electroporation (Example 2)
Format: cell-based
Conditions: approximately 24 hours
Outline: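 Hep3B, 20,000 cells/well; electroporation, 10,000 nM ASO; ~24 h. Readout: SMAD7 mRNA by qRT-PCR (RTS5062), RIBOGREEN-normalised; % inhibition vs untreated.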

[1] = Hep3B cells, 10,000 nM antisense oligonucleotide, electroporation, RT-PCR primer probe set RTS5062, relative to untreated control cells
[2] = Hep3B cells, electroporation with 10,000 nM antisense oligonucleotide, SMAD7 mRNA by RT-PCR (RTS5062), relative to untreated control cells

With “799892 (antisense kG*k[5mC]*kA*dT*d[5mC]*dA*dT*dT*dA*dA*dG*d[5mC]*d[5mC]*kA*kA*kT) [compound 799892]” the “% Inhibition” value [1] was 54%.
With “799893 (antisense kA*kT*kA*d[5mC]*dA*dA*dA*d[5mC]*d[5mC]*dA*d[5mC]*dT*dG*k[5mC]*kA*kT) [compound 799893]” the “% Inhibition” value [1] was 0%.
“799894 (antisense kT*k[5mC]*k[5mC]*d[5mC]*dA*dA*d[5mC]*dT*dG*dG*dG*d[5mC]*dA*kG*k[5mC]*kT) [compound 799894]” was tested, and the “% Inhibition” value [1] was 2%.
“799895 (antisense k[5mC]*kT*kG*dA*dG*dA*dG*dT*dG*dT*dA*dG*dG*kA*kG*kA) [compound 799895]” was tested, and the “% Inhibition” value [1] was 50%.
With “799896 (antisense k[5mC]*kT*kT*dA*d[5mC]*d[5mC]*dT*d[5mC]*dA*d[5mC]*d[5mC]*d[5mC]*dA*k[5mC]*k[5mC]*kT) [compound 799896]” the “% Inhibition” value [1] was 36%.
For “799897 (antisense kT*k[5mC]*kT*d[5mC]*dT*dT*dA*d[5mC]*d[5mC]*dT*d[5mC]*dA*d[5mC]*k[5mC]*k[5mC]*kA) [compound 799897]”, the “% Inhibition” value [1] was 27%.
With “799898 (antisense kG*kT*k[5mC]*dT*d[5mC]*dT*dT*dA*d[5mC]*d[5mC]*dT*d[5mC]*dA*k[5mC]*k[5mC]*k[5mC]) [compound 799898]” the “% Inhibition” value [1] was 37%.
“799899 (antisense kA*kA*kG*dT*d[5mC]*dT*d[5mC]*dT*dT*dA*d[5mC]*d[5mC]*dT*k[5mC]*kA*k[5mC]) [compound 799899]” was tested, and the “% Inhibition” value [1] was 33%.
For “799900 (antisense k[5mC]*kA*kA*dG*dT*d[5mC]*dT*d[5mC]*dT*dT*dA*d[5mC]*d[5mC]*kT*k[5mC]*kA) [compound 799900]”, the “% Inhibition” value [1] was 51%.
In the case of “799901 (antisense kA*kG*kT*d[5mC]*dA*dA*dG*dT*d[5mC]*dT*d[5mC]*dT*dT*kA*k[5mC]*k[5mC]) [compound 799901]”, the “% Inhibition” value [2] is reported as 31%.
In the case of “799902 (antisense kG*kG*kA*dA*dG*dA*d[5mC]*dA*d[5mC]*dA*dA*dG*dG*kG*k[5mC]*kT) [compound 799902]”, the “% Inhibition” value [2] is reported as 34%.
With “799903 (antisense kT*kG*k[5mC]*dA*dT*dG*dG*d[5mC]*dA*dT*dT*dG*dT*k[5mC]*kT*kG) [compound 799903]” the “% Inhibition” value [2] was 34%.
For “799905 (antisense kA*kG*kT*d[5mC]*dG*dA*dA*dT*d[5mC]*dA*dT*dT*dT*k[5mC]*kT*k[5mC]) [compound 799905]”, the “% Inhibition” value [2] was 53%.
With “799906 (antisense k[5mC]*kA*kT*dG*d[5mC]*dA*dG*dT*d[5mC]*dG*dA*dA*dT*k[5mC]*kA*kT) [compound 799906]” the “% Inhibition” value [2] was 11%.
In the case of “799907 (antisense kA*kG*kT*dA*dA*dA*dG*dG*dG*d[5mC]*d[5mC]*dT*d[5mC]*kT*k[5mC]*kT) [compound 799907]”, the “% Inhibition” value [2] is reported as 10%.
For “799908 (antisense k[5mC]*kA*kT*dA*dA*dT*dA*dT*dT*dG*dA*d[5mC]*dA*kG*kT*kA) [compound 799908]”, the “% Inhibition” value [2] was 41%.
For “799909 (antisense kA*kT*kT*d[5mC]*dA*dT*dA*dA*dT*dA*dT*dT*dG*kA*k[5mC]*kA) [compound 799909]”, the “% Inhibition” value [2] was 36%.
With “799910 (antisense k[5mC]*k[5mC]*kA*dA*d[5mC]*dT*d[5mC]*d[5mC]*dA*dT*dT*d[5mC]*dA*kT*kA*kA) [compound 799910]” the “% Inhibition” value [1] was 36%.
In the case of “799911 (antisense kA*kG*k[5mC]*d[5mC]*dA*dA*d[5mC]*dT*d[5mC]*d[5mC]*dA*dT*dT*k[5mC]*kA*kT) [compound 799911]”, the “% Inhibition” value [1] is reported as 0%.
In the case of “799912 (antisense k[5mC]*kT*k[5mC]*dA*dG*dA*dG*dG*dA*dA*dG*dG*dG*kT*kG*kG) [compound 799912]”, the “% Inhibition” value [1] is reported as 22%.
For “799913 (antisense kG*kG*k[5mC]*d[5mC]*dT*d[5mC]*dA*dG*dA*dG*dG*dA*dA*kG*kG*kG) [compound 799913]”, the “% Inhibition” value [1] was 18%.
In the case of “799914 (antisense k[5mC]*kT*kG*dA*dG*dA*dG*dA*dG*dG*d[5mC]*d[5mC]*dT*k[5mC]*kA*kG) [compound 799914]”, the “% Inhibition” value [1] is reported as 24%.
